Laboratory results taken from ChEMBL document CHEMBL5291721, “A preclinical secondary pharmacology resource illuminates target-adverse drug reaction associations of marketed drugs” (Nat Commun, 2023).

What was measured:
[1] = biological target: T1, Gastric inhibitory polypeptide receptor (Homo sapiens, UniProt P48546)
T1 sequence (P48546 whole entry): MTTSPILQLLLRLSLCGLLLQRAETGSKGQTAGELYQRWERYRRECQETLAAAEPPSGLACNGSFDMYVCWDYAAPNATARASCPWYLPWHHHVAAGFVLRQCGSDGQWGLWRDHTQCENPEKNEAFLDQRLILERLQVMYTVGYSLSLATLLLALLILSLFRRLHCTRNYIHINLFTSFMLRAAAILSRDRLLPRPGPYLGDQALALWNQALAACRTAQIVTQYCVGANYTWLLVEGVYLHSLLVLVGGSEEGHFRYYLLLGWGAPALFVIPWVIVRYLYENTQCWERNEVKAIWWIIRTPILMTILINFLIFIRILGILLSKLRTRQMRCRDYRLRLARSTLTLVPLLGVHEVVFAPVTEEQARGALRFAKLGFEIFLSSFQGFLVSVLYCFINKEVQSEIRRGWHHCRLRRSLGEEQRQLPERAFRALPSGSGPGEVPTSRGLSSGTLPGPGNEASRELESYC

Progesterone receptor = biological target: T2, Progesterone receptor (Homo sapiens, UniProt P06401)
T2 sequence (P06401 whole entry): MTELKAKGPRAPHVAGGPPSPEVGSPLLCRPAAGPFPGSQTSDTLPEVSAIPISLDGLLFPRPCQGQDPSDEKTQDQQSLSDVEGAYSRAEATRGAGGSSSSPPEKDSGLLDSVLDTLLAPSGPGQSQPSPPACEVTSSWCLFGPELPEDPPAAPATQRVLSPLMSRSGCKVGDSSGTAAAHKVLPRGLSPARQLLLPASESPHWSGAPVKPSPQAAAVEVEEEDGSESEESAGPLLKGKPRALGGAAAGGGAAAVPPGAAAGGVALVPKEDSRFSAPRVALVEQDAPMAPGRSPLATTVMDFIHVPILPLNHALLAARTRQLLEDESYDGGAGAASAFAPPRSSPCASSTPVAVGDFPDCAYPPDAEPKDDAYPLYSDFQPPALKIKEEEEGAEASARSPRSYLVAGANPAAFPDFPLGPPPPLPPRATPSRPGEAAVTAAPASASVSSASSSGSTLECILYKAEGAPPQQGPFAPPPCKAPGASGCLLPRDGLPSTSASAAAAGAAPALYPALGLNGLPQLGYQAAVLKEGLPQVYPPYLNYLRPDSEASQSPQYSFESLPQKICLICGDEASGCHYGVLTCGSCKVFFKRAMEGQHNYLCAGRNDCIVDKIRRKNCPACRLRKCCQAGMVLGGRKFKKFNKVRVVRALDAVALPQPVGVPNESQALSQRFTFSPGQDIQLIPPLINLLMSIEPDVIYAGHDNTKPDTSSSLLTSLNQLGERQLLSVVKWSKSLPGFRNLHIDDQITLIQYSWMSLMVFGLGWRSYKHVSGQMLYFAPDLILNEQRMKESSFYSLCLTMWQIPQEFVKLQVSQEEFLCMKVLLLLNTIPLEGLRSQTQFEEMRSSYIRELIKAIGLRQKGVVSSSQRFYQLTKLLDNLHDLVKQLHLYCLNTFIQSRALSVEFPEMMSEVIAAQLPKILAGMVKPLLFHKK

B1 bradykinin receptor = biological target: T3, B1 bradykinin receptor (Homo sapiens, UniProt P46663)
T3 sequence (P46663 whole entry): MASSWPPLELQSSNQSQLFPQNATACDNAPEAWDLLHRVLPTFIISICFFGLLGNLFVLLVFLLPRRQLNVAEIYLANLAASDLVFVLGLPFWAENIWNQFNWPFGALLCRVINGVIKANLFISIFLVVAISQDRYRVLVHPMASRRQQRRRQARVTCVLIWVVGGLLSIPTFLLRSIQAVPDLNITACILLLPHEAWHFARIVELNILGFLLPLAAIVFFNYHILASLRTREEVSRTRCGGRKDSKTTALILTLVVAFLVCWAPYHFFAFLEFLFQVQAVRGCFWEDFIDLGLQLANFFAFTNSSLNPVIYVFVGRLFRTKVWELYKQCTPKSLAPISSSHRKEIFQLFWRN

Glucagon receptor = Glucagon receptor (Homo sapiens, UniProt P47871)
[2] = biological target: Voltage-dependent N-type calcium channel subunit alpha-1B (Rattus norvegicus, UniProt Q02294); type: functional
[3] = biological target: Neurotensin receptor type 1 (Homo sapiens, UniProt P30989)
[4] = biological target: T4, Corticotropin-releasing factor receptor 2 (Homo sapiens, UniProt Q13324)
T4 sequence (Q13324 whole entry): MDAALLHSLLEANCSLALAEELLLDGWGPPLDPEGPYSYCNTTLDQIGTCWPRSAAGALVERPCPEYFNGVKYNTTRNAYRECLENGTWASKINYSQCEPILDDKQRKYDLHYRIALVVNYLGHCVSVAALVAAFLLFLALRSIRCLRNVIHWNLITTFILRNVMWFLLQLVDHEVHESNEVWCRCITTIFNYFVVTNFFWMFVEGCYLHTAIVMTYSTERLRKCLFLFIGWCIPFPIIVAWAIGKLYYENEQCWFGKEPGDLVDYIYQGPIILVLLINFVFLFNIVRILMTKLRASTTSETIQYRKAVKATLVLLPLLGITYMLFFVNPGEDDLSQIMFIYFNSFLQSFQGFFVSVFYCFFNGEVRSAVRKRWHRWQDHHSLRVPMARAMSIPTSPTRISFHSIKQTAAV

[5] = biological target: T5, Corticotropin-releasing factor receptor 1 (Homo sapiens, UniProt P34998)
T5 sequence (P34998 whole entry): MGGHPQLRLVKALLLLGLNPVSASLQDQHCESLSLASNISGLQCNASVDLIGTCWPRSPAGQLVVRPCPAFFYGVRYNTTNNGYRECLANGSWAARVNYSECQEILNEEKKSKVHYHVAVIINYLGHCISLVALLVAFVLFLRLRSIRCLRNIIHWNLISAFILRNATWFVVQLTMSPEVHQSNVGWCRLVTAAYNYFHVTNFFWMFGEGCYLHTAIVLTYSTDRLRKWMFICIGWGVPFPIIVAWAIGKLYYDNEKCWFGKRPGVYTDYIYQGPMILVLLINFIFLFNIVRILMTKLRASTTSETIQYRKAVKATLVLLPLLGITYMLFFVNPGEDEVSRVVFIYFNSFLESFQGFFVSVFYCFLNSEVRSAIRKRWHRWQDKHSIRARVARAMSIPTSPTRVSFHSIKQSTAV

[6] = biological target: Gamma-aminobutyric acid receptor subunit alpha-1 (Rattus norvegicus, UniProt P62813)
Note: assay procedure not described here.

Neurotensin receptor type 1, sequence (P30989 whole entry): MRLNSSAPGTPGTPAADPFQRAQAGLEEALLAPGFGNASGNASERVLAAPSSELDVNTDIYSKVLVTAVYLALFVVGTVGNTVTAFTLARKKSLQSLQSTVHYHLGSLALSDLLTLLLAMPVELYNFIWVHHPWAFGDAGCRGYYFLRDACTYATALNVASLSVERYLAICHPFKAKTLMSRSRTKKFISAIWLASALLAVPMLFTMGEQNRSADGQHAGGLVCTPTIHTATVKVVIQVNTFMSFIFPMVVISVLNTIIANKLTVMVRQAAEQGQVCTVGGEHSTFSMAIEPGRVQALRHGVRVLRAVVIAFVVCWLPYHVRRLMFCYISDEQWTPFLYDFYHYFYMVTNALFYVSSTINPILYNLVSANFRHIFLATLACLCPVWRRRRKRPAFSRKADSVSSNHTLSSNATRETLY
Glucagon receptor, sequence (P47871 whole entry): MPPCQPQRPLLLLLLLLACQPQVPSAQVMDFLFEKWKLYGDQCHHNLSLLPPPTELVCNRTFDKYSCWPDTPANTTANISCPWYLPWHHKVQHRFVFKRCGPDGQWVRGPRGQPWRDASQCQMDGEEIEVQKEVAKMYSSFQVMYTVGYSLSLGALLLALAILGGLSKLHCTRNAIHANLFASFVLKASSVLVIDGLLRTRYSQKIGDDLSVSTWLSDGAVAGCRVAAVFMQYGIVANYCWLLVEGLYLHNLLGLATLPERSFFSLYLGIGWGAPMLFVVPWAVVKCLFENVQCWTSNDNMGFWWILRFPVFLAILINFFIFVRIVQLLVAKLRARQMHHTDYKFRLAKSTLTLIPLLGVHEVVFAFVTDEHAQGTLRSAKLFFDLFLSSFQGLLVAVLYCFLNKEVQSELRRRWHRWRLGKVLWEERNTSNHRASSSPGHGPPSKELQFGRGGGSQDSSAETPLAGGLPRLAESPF
Voltage-dependent N-type calcium channel subunit alpha-1B, sequence (Q02294 whole entry): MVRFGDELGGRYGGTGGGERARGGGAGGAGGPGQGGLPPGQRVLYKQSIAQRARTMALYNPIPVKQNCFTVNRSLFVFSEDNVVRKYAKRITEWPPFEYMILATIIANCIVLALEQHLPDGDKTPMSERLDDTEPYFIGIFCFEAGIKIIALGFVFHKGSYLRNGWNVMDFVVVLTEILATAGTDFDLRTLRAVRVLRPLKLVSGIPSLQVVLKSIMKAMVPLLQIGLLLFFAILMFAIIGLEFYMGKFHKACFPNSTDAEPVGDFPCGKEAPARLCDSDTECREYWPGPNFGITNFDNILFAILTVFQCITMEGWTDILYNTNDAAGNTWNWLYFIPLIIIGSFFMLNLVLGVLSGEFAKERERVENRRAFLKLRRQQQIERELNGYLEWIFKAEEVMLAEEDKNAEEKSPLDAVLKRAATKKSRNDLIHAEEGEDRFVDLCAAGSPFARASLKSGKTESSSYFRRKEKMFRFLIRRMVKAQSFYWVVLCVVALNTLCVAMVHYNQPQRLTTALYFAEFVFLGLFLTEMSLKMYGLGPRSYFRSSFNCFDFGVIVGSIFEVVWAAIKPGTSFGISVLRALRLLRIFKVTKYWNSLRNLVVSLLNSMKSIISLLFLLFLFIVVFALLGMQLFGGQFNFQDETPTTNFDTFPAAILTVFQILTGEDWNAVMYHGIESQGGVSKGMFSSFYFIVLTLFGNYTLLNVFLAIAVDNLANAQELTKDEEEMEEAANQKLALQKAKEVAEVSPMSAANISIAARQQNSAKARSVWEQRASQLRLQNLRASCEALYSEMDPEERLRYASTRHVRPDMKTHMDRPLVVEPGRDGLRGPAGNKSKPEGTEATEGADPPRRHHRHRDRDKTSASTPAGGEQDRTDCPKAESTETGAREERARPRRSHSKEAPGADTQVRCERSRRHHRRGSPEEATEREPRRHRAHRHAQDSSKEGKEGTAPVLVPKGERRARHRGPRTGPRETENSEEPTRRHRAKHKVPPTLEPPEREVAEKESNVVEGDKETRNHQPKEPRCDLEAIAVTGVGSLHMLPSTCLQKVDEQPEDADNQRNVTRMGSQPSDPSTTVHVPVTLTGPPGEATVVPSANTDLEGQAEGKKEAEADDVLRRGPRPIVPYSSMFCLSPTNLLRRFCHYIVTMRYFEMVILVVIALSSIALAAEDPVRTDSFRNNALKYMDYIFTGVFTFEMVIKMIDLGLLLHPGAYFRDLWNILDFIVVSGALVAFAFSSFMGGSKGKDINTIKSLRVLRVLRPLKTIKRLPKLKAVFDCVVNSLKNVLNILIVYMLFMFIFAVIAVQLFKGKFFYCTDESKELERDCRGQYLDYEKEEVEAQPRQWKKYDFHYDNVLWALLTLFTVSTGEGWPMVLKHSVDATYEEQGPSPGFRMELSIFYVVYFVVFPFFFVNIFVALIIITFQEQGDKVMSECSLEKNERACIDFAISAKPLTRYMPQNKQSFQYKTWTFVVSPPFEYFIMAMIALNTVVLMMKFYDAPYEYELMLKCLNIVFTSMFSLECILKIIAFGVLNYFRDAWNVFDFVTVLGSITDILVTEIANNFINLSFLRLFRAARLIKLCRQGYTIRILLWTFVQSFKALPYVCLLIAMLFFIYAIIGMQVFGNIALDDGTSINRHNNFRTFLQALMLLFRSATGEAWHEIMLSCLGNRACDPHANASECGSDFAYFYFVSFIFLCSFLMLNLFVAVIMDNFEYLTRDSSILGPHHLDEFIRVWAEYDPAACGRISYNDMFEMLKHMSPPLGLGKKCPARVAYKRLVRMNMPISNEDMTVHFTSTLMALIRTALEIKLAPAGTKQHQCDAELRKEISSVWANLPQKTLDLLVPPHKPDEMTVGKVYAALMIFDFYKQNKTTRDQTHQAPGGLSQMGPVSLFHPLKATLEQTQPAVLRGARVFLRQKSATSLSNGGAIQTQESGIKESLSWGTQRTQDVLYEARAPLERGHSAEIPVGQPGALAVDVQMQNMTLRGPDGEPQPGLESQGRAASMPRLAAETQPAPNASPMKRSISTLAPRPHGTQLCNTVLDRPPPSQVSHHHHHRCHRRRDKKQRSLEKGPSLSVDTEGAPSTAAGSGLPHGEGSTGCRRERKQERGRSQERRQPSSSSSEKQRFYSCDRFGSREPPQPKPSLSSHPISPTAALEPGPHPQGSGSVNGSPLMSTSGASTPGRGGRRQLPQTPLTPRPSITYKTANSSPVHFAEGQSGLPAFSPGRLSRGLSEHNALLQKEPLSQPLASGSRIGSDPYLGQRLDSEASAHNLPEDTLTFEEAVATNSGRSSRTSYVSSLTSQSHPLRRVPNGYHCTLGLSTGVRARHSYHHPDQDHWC
Gamma-aminobutyric acid receptor subunit alpha-1, sequence (P62813 whole entry): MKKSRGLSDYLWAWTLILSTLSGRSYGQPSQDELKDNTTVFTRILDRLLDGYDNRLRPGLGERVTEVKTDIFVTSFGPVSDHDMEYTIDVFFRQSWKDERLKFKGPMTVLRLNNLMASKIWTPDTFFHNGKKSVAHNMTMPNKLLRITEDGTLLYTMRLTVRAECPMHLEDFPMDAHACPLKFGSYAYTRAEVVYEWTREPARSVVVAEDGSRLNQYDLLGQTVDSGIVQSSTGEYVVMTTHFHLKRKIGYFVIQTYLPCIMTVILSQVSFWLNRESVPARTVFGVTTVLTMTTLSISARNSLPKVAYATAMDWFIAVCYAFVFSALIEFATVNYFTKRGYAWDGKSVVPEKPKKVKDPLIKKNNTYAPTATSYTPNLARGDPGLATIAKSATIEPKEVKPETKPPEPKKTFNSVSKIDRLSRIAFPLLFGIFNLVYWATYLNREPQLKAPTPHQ

Row | SMILES | AC50 [1] [µM] | AC50 (Progesterone receptor) [µM] | AC50 (B1 bradykinin receptor) [µM] | AC50 (Glucagon receptor) [µM] | AC50 [2] [µM] | AC50 [3] [µM] | AC50 [4] [µM] | AC50 [5] [µM] | AC50 [6] [µM]
1 | [H]/N=C(/N)N/C(=N/[H])NCCc1ccccc1 [PHENFORMIN] | > 30 | > 30 | > 30 | > 30 | > 10 | > 30 | > 30 | > 30 | 
2 | CC(N)C(O)c1ccccc1 (stereo not given) [PHENYLPROPANOLAMINE] | > 30 | > 30 | > 30 | > 30 | > 10 | > 30 | > 30 | > 30 | 
3 | OC1(c2ccc(Cl)cc2)c2ccccc2C2=NCCN21 (stereo not given) [MAZINDOL] | > 30 | > 30 | > 30 | > 30 | > 10 | > 30 | > 30 | > 30 | 
4 | O=C(O)c1cn(C2CC2)c2cc(N3CCNCC3)c(F)cc2c1=O [CIPROFLOXACIN] | > 30 | > 30 | > 30 | > 30 |  | > 30 | > 30 | > 30 | 
5 | CC(C)NCC(O)c1ccc(O)c(O)c1 (stereo not given) [ISOPROTERENOL] | > 30 | > 30 | > 30 | > 30 | > 10 | > 30 | > 30 | > 30 | 
6 | CCC(=O)O[C@]1(C(=O)SCF)[C@H](C)C[C@H]2[C@@H]3C[C@H](F)C4=CC(=O)C=C[C@]4(C)[C@@]3(F)[C@@H](O)C[C@@]21C [FLUTICASONE PROPIONATE] | > 30 |  | > 30 | > 30 | > 10 | > 30 | > 30 | > 30 | > 30
7 | CC(CCc1ccc(O)cc1)NCCc1ccc(O)c(O)c1 (stereo not given) [DOBUTAMINE] | > 30 | > 30 | > 30 | > 30 | > 10 | > 30 | > 30 | > 30 | 
8 | CCOC(=O)C1=C(C)NC(C)=C(C(=O)OC)C1c1cccc([N+](=O)[O-])c1 (stereo not given) [NITRENDIPINE] | > 30 | > 30 | > 30 | > 30 | > 10 | > 30 | > 30 | > 30 | 
9 | CC12CC3CC(C)(C1)CC(N)(C3)C2 [MEMANTINE] | > 30 | > 30 | > 30 | > 30 | > 10 | > 30 | > 30 | > 30 | 
10 | CC(C)COCC(CN(Cc1ccccc1)c1ccccc1)N1CCCC1 (stereo not given) [BEPRIDIL] | > 30 | > 30 | > 30 | > 30 |  | > 30 | > 30 | > 30 | 
11 | Cc1cnc(C(=O)NCCc2ccc(S(=O)(=O)NC(=O)NC3CCCCC3)cc2)cn1 [GLIPIZIDE] | > 30 | > 30 | > 30 | > 30 | > 10 | > 30 | > 30 | > 30 | 
12 | CN1CCN(C2=Nc3ccccc3Oc3ccc(Cl)cc32)CC1 [LOXAPINE] | > 30 | > 30 | > 30 | > 30 | > 10 | > 30 | > 30 | > 30 | > 30
